From US12116573B2, “Targeting ligands for therapeutic compounds” (Arrowhead Pharmaceuticals, Inc., priority 2016, dated 2024)

Experiment: Solubility of targeting ligand phosphoramidite compounds in oligonucleotide synthesis solvent (Example 5)
Format: physicochemical
Conditions: for solubility relative to Structure 103d: solvents for oligonucleotide synthesis
Description: The compositions were solubilized in dichloromethane (DCM) and dried over sieves.

Row | SMILES | solubility relative to Structure 103d | dissolution under standard conditions (standard concentrations and solvent conditions typical for oligonucleotide synthesis)
1 | CC(=O)NC1C(OCCOCCNC(=O)CCC(NC(=O)CCC(NC(=O)CCOCCOCCOCCOCCOCCOCCOP(OCCC#N)N(C(C)C)C(C)C)C(=O)NCCOCCOC2OC(COC(C)=O)C(OC(C)=O)C(OC(C)=O)C2NC(C)=O)C(=O)NCCOCCOC2OC(COC(C)=O)C(OC(C)=O)C(OC(C)=O)C2NC(C)=O)OC(COC(C)=O)C(OC(C)=O)C1OC(C)=O (stereo not drawn) [Structure 101d, Tri-NAG-bis-Glu-NH-PEG6 phosphoramidite] | greater solubility | 
2 | CC(=O)NC1C(OCCOCCNC(=O)CCC(NC(=O)CCC(NC(=O)CCOCCOCCOCCOCCOCCOCCOCCOCCOP(OCCC#N)N(C(C)C)C(C)C)C(=O)NCCOCCOC2OC(COC(C)=O)C(OC(C)=O)C(OC(C)=O)C2NC(C)=O)C(=O)NCCOCCOC2OC(COC(C)=O)C(OC(C)=O)C(OC(C)=O)C2NC(C)=O)OC(COC(C)=O)C(OC(C)=O)C1OC(C)=O (stereo not drawn) [Structure 102d, Tri-NAG-bis-Glu-NH-PEG8 Phosphoramidite] | greater solubility | 
3 | CC(=O)NC1C(OCCOCCNC(=O)CCC(NC(=O)CCC(NC(=O)CCOCCOCCOCCOCCOP(OCCC#N)C(C(C)C)C(C)C)C(=O)NCCOCCOC2OC(COC(C)=O)C(OC(C)=O)C(OC(C)=O)C2NC(C)=O)C(=O)NCCOCCOC2OC(COC(C)=O)C(OC(C)=O)C(OC(C)=O)C2NC(C)=O)OC(COC(C)=O)C(OC(C)=O)C1OC(C)=O (stereo not drawn) [Structure 103d, Tri-NAG-bis-Glu-NH-PEG4 phosphoramidite] |  | difficult to dissolve
